{"source": "patent US8574563B2", "about": "(Bristol-Myers Squibb Company, priority 2006, dated 2013)", "note": "pEC50: −log10 of the molar value."}
{"test_system": "HCV 1b-377-neo replicon cells", "experiment": "HCV replicon assay, HCV 1b-377-neo replicon cells (1b FRET)", "assay_type": "cell-based, Hepatitis C virus genotype 1b", "conditions": "HCV 1b-377-neo replicon cells; HCV 1b genotype; read-out: EC50 range against HCV 1b (Table 2, Range)", "procedure": "(§1) An HCV Replion assay was utilized in the present disclosure, and was prepared, conducted and validated as described in commonly owned PCT/US2006/022197 and in O'Boyle et. al. Antimicrob Agents Chemother. 2005 April; 49(4):1346-53.\n(§2) HCV 1b-377-neo replicon cells were used to test the currently described compound series as well as cells resistant to compound A due to a Y2065H mutation in NS5A (described in application PCT/US2006/022197). The compounds tested were determined to have more than 10-fold less inhibitory activity on cells resistant to compound A than wild-type cells indicating a related mechanism of action between the two compound series. Thus, the compounds of the present disclosure can be effective to inhibit the function of the HCV NS5A protein and are understood to be as effective in combinations as previously described in application PCT/US2006/022197 and commonly owned WO/04014852. Further, the compounds of the present disclosure can be effective against the HCV 1b genotype. It should also be understood that the compounds of the present disclosure can inhibit multiple genotypes of HCV. […] In one embodiment compounds of the present disclosure are active against the 1a, 1b, 2a, 2b, 3a, 4a, and 5a genotypes."}
{"smiles": "CCC[C@H](NC(=O)OC)C(=O)N1CCC[C@H]1c1ncc(-c2ccc(-c3ccc(-c4cnc([C@@H]5CCCN5C(=O)[C@H](C)NC(=O)OC)[nH]4)cc3)cc2)[nH]1", "note": "[Example M94, methyl ((1S)-1-(((2S)-2-(5-(4′-(2-((2S)-1-((2S)-2-((methoxycarbonyl)amino)propanoyl)-2-pyrrolidinyl)-1H-imidazol-5-yl)-4-biphenylyl)-1H-imidazol-2-yl)-1-pyrrolidinyl)carbonyl)butyl) carbamate]", "pEC50": "7.00 to 9.00"}
{"smiles": "CCN(CC)[C@@H](C(=O)N1CCC[C@H]1c1ncc(-c2ccc(-c3ccc(-c4cnc([C@@H]5CCCN5C(=O)C5(NC(=O)OC)CCCC5)[nH]4)cc3)cc2)[nH]1)c1ccccc1", "note": "[Example M42, methyl (1-(((2S)-2-(5-(4′-(2-((2S)-1-((2R)-2-(diethylamino)-2-phenylacetyl)-2-pyrrolidinyl)-1H-imidazol-5-yl)-4-biphenylyl)-1H-imidazol-2-yl)-1-pyrrolidinyl)carbonyl)cyclopentyl) carbamate]", "pEC50": "7.00 to 9.00"}
{"smiles": "C[C@@H](O)C(=O)N1CCC[C@H]1c1ncc(-c2ccc(-c3ccc(-c4cnc([C@@H]5CCCN5C(=O)[C@@H](C)O)[nH]4)cc3)cc2)[nH]1", "note": "[Example 15, (2R,2′R)-1,1′-(4,4′-biphesnyldiylbis(1H-imidazole-5,2-diyl(2S)-2,1-pyrrolidinediyl))bis(1-oxo-2-propanol)]", "pEC50": "7.00 to 9.00"}
{"smiles": "COC(=O)N[C@@H](C(=O)N1CCC[C@H]1c1ncc(-c2ccc(-c3ccc(-c4cnc([C@@H]5CCCN5C(=O)[C@H](OC)c5ccccc5)[nH]4)cc3)cc2)[nH]1)c1ccccc1", "note": "[Example 84-80, methyl ((1R)-2-((2S)-2-(5-(4′-(2-((2S)-1-((2R)-2-methoxy-2-phenylacetyl)-2-pyrrolidinyl)-1H-imidazol-5-yl)-4-biphenylyl)-1H-imdiazol-2-yl)-1-pyrrolidinyl)-2-oxo-1-phenylethyl)carbamate]", "pEC50": "9.00 to 12.00"}
{"test_system": "HCV 1b-377-neo replicon cells", "experiment": "HCV replicon assay, HCV 1b-377-neo replicon cells (1b FRET)", "assay_type": "cell-based, Hepatitis C virus genotype 1b", "conditions": "Hepatitis C virus, HCV 1b-377-neo replicon cells; HCV 1b genotype; read-out: EC50 range against HCV 1b (Table 2, Range)", "procedure": "as §1, §2"}
{"smiles": "CC(C)[C@@H](C(=O)N1CCC[C@H]1c1nc(-c2ccc(-c3ccc(-c4cnc([C@@H]5CCCN5C(=O)[C@H](C(C)C)N(C)C(=O)OC(C)(C)C)[nH]4)cc3)cc2)c[nH]1)N(C)C(=O)OC(C)(C)C", "note": "[Example F30, tert-butyl ((1S)-1-(((2S)-2-(5-(4′-(2-((2S)-1-((2S)-2-((tert-butoxycarbonyl)(methyl)amino)-3-methylbutanoyl)-2-pyrrolidinyl)-1H-imidazol-4-yl)-4-biphenylyl)-1H-imidazol-2-yl)-1-pyrrolidinyl)carbonyl)-2-methylpropyl)methylcarbamate]", "pEC50": "7.00 to 9.00"}
{"smiles": "COC(=O)N[C@H](C(=O)N1CCC[C@H]1c1ncc(-c2ccc(-c3ccc(-c4cnc([C@@H]5CCCN5C(=O)[C@@H](NC(=O)OC)[C@@H](C)CO)[nH]4)cc3)cc2)[nH]1)C(C)C", "note": "[Example M106]", "pEC50": "7.00 to 9.00"}
{"smiles": "COC(=O)N[C@@H](C(=O)N1CCC[C@H]1c1ncc(-c2ccc(-c3ccc(-c4cnc([C@@H]5CCCN5C(=O)Cc5cnc[nH]5)[nH]4)cc3)cc2)[nH]1)c1ccccc1", "note": "[Example 61, methyl ((1R)-2-((2S)-2-(5-(4′-(2-((2S)-1-(1H-imidazol-5-ylacetyl)-2-pyrrolidinyl)-1H-imidazol-5-yl)-4-biphenylyl)-1H-imidazol-2-yl)-1-pyrrolidinyl)-2-oxo-1-phenylethyl)carbamate]", "pEC50": "9.00 to 12.00"}
{"smiles": "CNC(=O)N[C@H](C(=O)N1CCC[C@H]1c1nc(-c2ccc(-c3ccc(-c4c[nH]c([C@@H]5CCCN5C(=O)[C@@H](NC(=O)NC)C(C)C)n4)cc3)cc2)c[nH]1)C(C)C", "note": "[Example F63, 1-methyl-3-((1S)-2-methyl-1-(((2S)-2-(4-(4′-(2-((2S)-1-(N-(methylcarbamoyl)-L-valyl)-2-pyrrolidinyl)-1H-imidazol-4-yl)-4-biphenylyl)-1H-imidazol-2-yl)-1-pyrrolidinyl)carbonyl)propyl)urea]", "pEC50": "9.00 to 12.00"}
{"smiles": "COC(=O)N[C@@H](Cc1ccc(O)cc1)C(=O)N1CCC[C@H]1c1ncc(-c2ccc(-c3ccc(-c4cnc([C@@H]5CCCN5C(=O)[C@@H](NC(=O)OC)C(C)C)[nH]4)cc3)cc2)[nH]1", "note": "[cj-111, methyl ((1S)-1-(4-hydroxybenzyl)-2-((2S)-2-(5-(4′-(2-((2S)-1-((2S)-2-((methoxycarbonyl)amino)-3-methylbutanoyl)-2-pyrrolidinyl)-1H-imidazol-5-yl)-4-biphenylyl)-1H-imidazol-2-yl)-1-pyrrolidinyl)-2-oxoethyl)carbamate]", "pEC50": "9.00 to 12.00"}
{"smiles": "O=C(N[C@@H](C(=O)N1CCC[C@H]1c1ncc(-c2ccc(-c3ccc(-c4cnc([C@@H]5CCCN5C(=O)[C@H]5CCCO5)[nH]4)cc3)cc2)[nH]1)c1ccccc1)[C@H]1CCCO1", "note": "[Example 119, (2R)-N-((1R)-2-oxo-1-phenyl-2-((2S)-2-(5-(4′-(2-((2S)-1-((2R)-tetrahydro-2-furanylcarbonyl)-2-pyrrolidinyl)-1H-imidazol-5-yl)-4-biphenylyl)-1H-imidazol-2-yl)-1-pyrrolidinyl)ethyl)tetrahydro-2-furancarboxamide]", "pEC50": "9.00 to 12.00"}
{"smiles": "COC(=O)NC1(C(=O)N2CCC[C@H]2c2ncc(-c3ccc(-c4ccc(-c5cnc([C@@H]6CCCN6C(=O)C6(NC(=O)OC)CC6)[nH]5)cc4)cc3)[nH]2)CC1", "note": "[Example M6, dimethyl (4,4′-biphenyldiylbis(1H-imidazole-5,2-diyl(2S)-2,1-pyrrolidinediylcarbonyl-1,1-cyclopropanediyl))bis-carbamate]", "pEC50": "5.00 to 6.00"}
{"smiles": "O=C(NC1CCCC1)N[C@@H](C(=O)N1C[C@H](O)C[C@H]1c1ncc(-c2ccc(-c3ccc(-c4cnc([C@@H]5C[C@@H](O)CN5C(=O)[C@H](NC(=O)NC5CCCC5)c5ccccc5)[nH]4)cc3)cc2)[nH]1)c1ccccc1", "note": "[Example 24-15, N′,N′′′-(4,4′-biphenyldiylbis(1H-imidazole-5,2-diyl((2S,4R)-4-hydroxy-2,1-pyrrolidinediyl)((1R)-2-oxo-1-phenyl-2,1-ethanediyl)))bis(1-cyclopentylurea)]", "pEC50": "7.00 to 9.00"}
{"smiles": "COC(=O)N[C@@H](C(=O)N[C@@H](C)c1ncc(-c2ccc(-c3ccc(-c4cnc([C@@H]5CCCN5C(=O)[C@H](NC(=O)OC)c5ccccc5)[nH]4)cc3)nc2)[nH]1)c1ccccc1", "note": "[Example 152j-22, methyl ((1R)-2-((2S)-2-(5-(4-(5-(2-((1S)-1-(((2R)-2-((methoxycarbonyl)amino)-2-phenylacetyl)amino)ethyl)-1H-imidazol-5-yl)-2-pyridinyl)phenyl)-1H-imidazol-2-yl)-1-pyrrolidinyl)-2-oxo-1-phenylethyl)carbamate]", "pEC50": "9.00 to 12.00"}
{"smiles": "CCN[C@@H](C(=O)N1CCC[C@H]1c1nc(-c2ccc(-c3ccc(-c4cnc([C@@H]5CCCN5C(=O)[C@H](NCC)c5ccccc5)[nH]4)cc3)cc2)c[nH]1)c1ccccc1", "note": "[Example F14, (1R)-N-ethyl-2-((2S)-2-(4-(4′-(2-((2S)-1-((2R)-2-(ethylamino)-2-phenylacetyl)-2-pyrrolidinyl)-1H-imidazol-5-yl)-4-biphenylyl)-1H-imidazol-2-yl)-1-pyrrolidinyl)-2-oxo-1-phenylethanamine]", "pEC50": "9.00 to 12.00"}
{"smiles": "COC(=O)N[C@H](C(=O)N1CCC[C@H]1c1ncc(-c2ccc(-c3ccc(-c4cnc([C@@H]5CCCN5C(=O)CNC(C)C)[nH]4)cc3)cc2)[nH]1)C(C)C", "note": "[LS25, methyl ((1S)-1-(((2S)-2-(5-(4′-(2-((2S)-1-(N-isopropylglycyl)-2-pyrrolidinyl)-1H-imidazol-5-yl)-4-biphenylyl)-1H-imidazol-2-yl)-1-pyrrolidinyl)carbonyl)-2-methylpropyl)carbamate]", "pEC50": "9.00 to 12.00"}
{"smiles": "COC(=O)N[C@@H](C(=O)N1CCC[C@H]1c1ncc(-c2ccc(-c3cc(F)c(-c4cnc([C@@H]5CCCN5C(=O)[C@H](NC(=O)OC)c5ccccc5)[nH]4)cc3F)cc2)[nH]1)c1ccccc1", "note": "[Example D53, dimethyl ((2,5-difluoro-4,4′-biphenyldiyl)bis(1H-imidazole-5,2-diyl(2S)-2,1-pyrrolidinediyl((1R)-2-oxo-1-phenyl-2,1-ethanediyl))) biscarbamate]", "pEC50": "9.00 to 12.00"}
{"smiles": "COC(=O)N[C@@H](C(=O)N1CCC[C@H]1c1ncc(-c2ccc(-c3ccc(-c4cnc([C@@H]5CCCN5C(=O)[C@@H](c5ccccc5)N(C)C)[nH]4)cc3)cc2)[nH]1)c1ccccc1Cl", "note": "[Example 107-40, methyl ((1R)-1-(2-chlorophenyl)-2-((2S)-2-(5-(4′-(2-((2S)-1-((2R)-2-(dimethylamino)-2-phenylacetyl)-2-pyrrolidinyl)-1H-imidazol-5-yl)-4-biphenylyl)-1H-imidazol-2-yl)-1-pyrrolidinyl)-2-oxoethyl) carbamate]", "pEC50": "9.00 to 12.00"}
{"smiles": "O=C(Cc1ccccc1CN1CCCC1)N1CCC[C@H]1c1ncc(-c2ccc(-c3ccc(-c4cnc([C@@H]5CCCN5C(=O)[C@@H](c5ccccc5)N5CCCCC5)[nH]4)cc3)cc2)[nH]1", "note": "[Example 107-27, 1-((1R)-2-oxo-1-phenyl-2-((2S)-2-(5-(4′-(2-((2S)-1-((2-(1-pyrrolidinylmethyl)phenyl)acetyl)-2-pyrrolidinyl)-1H-imidazol-5-yl)-4-biphenylyl)-1H-imidazol-2-yl)-1-pyrrolidinyl)ethyl)piperidine]", "pEC50": "9.00 to 12.00"}
{"smiles": "CCCN(CCC)[C@H](C)C(=O)N1CCC[C@H]1c1ncc(-c2ccc(-c3ccc(-c4cnc([C@@H]5CCCN5C(=O)[C@@H](NC(=O)OC)C(C)C)[nH]4)cc3)cc2)[nH]1", "note": "[Example M83, methyl ((1S)-1-(((2S)-2-(5-(4′-(2-((2S)-1-(N,N-dipropyl-D-alanyl)-2-pyrrolidinyl)-1H-imidazol-5-yl)-4-biphenylyl)-1H-imidazol-2-yl)-1-pyrrolidinyl)carbonyl)-2-methylpropyl)carbamate]", "pEC50": "7.00 to 9.00"}
